Converted amounts (≈) assume the structure as drawn. Where two headings read alike, the source gives them in different places.
How the values were obtained:
[1] = test system: SW480 human colon adenocarcinoma cells; assay: Cell viability, sulforhodamine B (SRB) assay, SW480 cells; format: cell-based; details: for IC50: Homo sapiens, SW480 cells, SRB; for SI (selectivity index), 24 h: ratio of IC50 against CHO-K1 to IC50 against SW480, 24 h; for SI (selectivity index), 48 h: ratio of IC50 against CHO-K1 to IC50 against SW480, 48 h
Protocol: (§1) Biological assays were performed using an adenocarcinoma colon cancer cell line (SW480) and non-malignant cells (CHO-K1). These were obtained from the European Collection of Authenticated Cell Cultures (ECACC, England) and maintained in Dulbecco’s Modified Eagle Medium, supplemented with 10% heat-inactivated (56 °C) horse serum, 1% penicillin/streptomycin and 1% non-essential amino acids (Gibco Invitrogen, Carlsbad, USA). For all experiments, horse serum was reduced to 3%, and the medium was supplemented with […] transferrin, 5 ng/mL selenium and […] insulin (ITS-defined medium; Gibco, Invitrogen, Carlsbad, USA) ([32]).
(§2) The cell viability of the synthesized hybrids, lead, and reference compounds was evaluated through Sulforhodamine B (SRB) assay, a colorimetric test that is based on staining of total cellular protein of adherent cells. The cells were seeded to a ﬁnal density of 20.000 cells/well in 96-well tissue culture plates and incubated at 37 °C in a humidified atmosphere at 5% CO2. […] After treatment, the cells were fixed with trichloroacetic acid (50% v/v) (MERCK) for a period of one h at 4 °C. The cell proteins were determined by staining with 0.4% (w/v) SRB (Sigma-Aldrich, United States), then they were washed with 1% acetic acid for the removal of unbound SRB and left for air-drying. Protein bound SRB was solubilized in 10 mM Tris-base and the absorbance was measured at 492 nm in a microplate reader (Mindray MR-96A) ([33]). All of the experiments were performed at least in quintuplicate.

SW480 cells [2] = assay: Antiproliferative activity, SRB assay over 0-8 days; format: cell-based, human; details: 0.1-0.55 mM, p ≤ 0.05 vs control
Protocol: Briefly, the cells were seeded to a ﬁnal density of 2500 cells/well in 96-well tissue culture plates and incubated in the same conditions described for viability. […] Culture media was replaced every 48 h. After each incubation time, the cells were fixed, stained, and read as previously described for this technique ([32]).

SW480 cells [3] = assay: Mitochondrial membrane potential (ΔΨm), DiOC6/PI flow cytometry; format: cell-based, human; details: SW480, treated at IC50, 48 h; for PI+ cells: cells in process of death; for DiOC6 low cells: cells that lose membrane polarization; for DiOC6 high cells: live cells with high membrane polarization; for Mitochondrial membrane depolarization in words: vs control
Protocol: Mitochondrial membrane permeability changes were assessed through the fluorescent dye DiOC6 (3,3’-dihexyloxacarbocyanine iodide, Thermo Fisher Scientiﬁc, Waltham, MA, USA), and propidium iodide (PI). The cells were seeded to a ﬁnal density of 2.5 x 10^5 cells/well in 6-well tissue culture plates and were allowed to grow for 24 h. […] The cells were collected to analyze 10,000 events by ﬂow cytometry with excitation at 488 nm and detection of the emission with the green (530/15 nm) and the red (610/20 nm) ﬁlters. This method allowed us quantifying cells with depolarized mitochondrial membrane ([34]).

SW480 cells [4] = assay: Cell cycle analysis, propidium iodide flow cytometry; format: cell-based, human; details: SW480, treated at IC50, 48 h
Protocol: Cell cycle distribution was analyzed by labelling cells with propidium iodide (PI). Assays were carried out as described by Nicoletti et al. (1991). In brief, cells were seeded in 6-well tissue culture plates at a density of 2.5 x 10^5 cells/well, incubated at 37 °C in a 5% CO2 atmosphere. […] After the treatment, the cells were collected by scraping and the centrifuged cell pellet was resuspended with phosphate buffered saline (PBS). The cell suspension was fixed in 1.8 mL 70% ethanol at 4°C overnight, afterward, these were centrifuged, washed twice in PBS and resuspended in 300 µL of PBS containing 0.25 mg/mL RNAse (Type I-A, Sigma-Aldrich, Germany) and 0.1 mg/mL PI. Following the incubation in the dark at room temperature for 30 min, the PI ﬂuorescence of 10,000 cells was analyzed using a FACS Canto II ﬂow cytometer and the software BD FACS Diva 6.1.3. (BD Biosciences, San Jose). PI signal was analyzed with excitation at 488 nm, using a Sapphire laser, and fluorescence was detected at 610nm. The cell clumps were excluded with the PI-Area vs PI-Width signals. The cell cycle model was ﬁxed using the software FlowJo 7.6.2 (Ashland, OR, USA), applying the Dean-Jett-Fox model ([34], [35]).

[5] = test system: non-malignant CHO-K1 cell line; assay: Cell viability, sulforhodamine B (SRB) assay, CHO-K1 cells; format: cell-based; details: Cricetulus griseus
Protocol: as §1, §2

[6] = test system: human gastric carcinoma cell line BGC-823; design: method as in PMID 19272773; details: cited from earlier work
[7] = test system: human hepatoma cell line BEL-7402; design: method as in PMID 19272773; details: cited from earlier work
[8] = test system: human nasopharyngeal carcinoma cell line KB; design: method as in PMID 19272773; details: cited from earlier work
[9] = 24 h treatment, read-out: IC50 (mM) SW480 cells, 24 h
[10] = 48 h treatment, read-out: IC50 (mM) SW480 cells, 48 h
[11] = 24 h treatment, read-out: IC50 (mM) CHO-K1 cells, 24 h
[12] = 48 h treatment, read-out: IC50 (mM) CHO-K1 cells, 48 h

IC50 [1, 9] | IC50 [1, 10] | melting point | SMILES | SI (selectivity index), 24 h [1] | SI (selectivity index), 48 h [1] | Day from which significant antiproliferative activity was displayed (SW480 cells [2]) | PI+ cells (SW480 cells [3]) | DiOC6 low cells (SW480 cells [3]) | DiOC6 high cells (SW480 cells [3]) | Cells in G2/M phase (SW480 cells [4]) | Effect on cell cycle in words (SW480 cells [4]) | IC50 [5, 11] | IC50 [5, 12] | Cytotoxic activity in words ([1]; at 24 h and 48 h after treatment) | Mitochondrial membrane depolarization in words (SW480 cells [3]) | Cells in G0/G1 phase (SW480 cells [4]) | Cells in S phase (SW480 cells [4]) | IC50 against BGC-823 [6] | IC50 against BEL-7402 [7] | IC50 against KB [8]
0.68 mM | 0.18 mM | 101 to 103 °C | C=CCSC[C@H](NC(=O)/C=C/c1ccc(OC(C)=O)c(OC(C)=O)c1)C(=O)OCCCCC [6e, Pentyl N-{(2E)-3-[3,4-bis(acetyloxy)phenyl]prop-2-enoyl}-S-prop-2-en-1-ylcysteinate] | 0.40 | 10.3 | 2 days | 9,38% | 39,9% | 51,0% | 22.7% | cell cycle arrest in G2/M phase | 0.26 mM | 1.84 mM |  |  |  |  |  |  | 
0.93 mM | 0.12 mM |  | C=CCSC[C@H](NC(=O)/C=C/c1ccc(O)c(O)c1)C(=O)OCC [9b, Ethyl N-[(2E)-3-(3,4-dihydroxyphenyl)-2-propenoyl]-S-2-propen-1-yl-L-cysteinate] |  |  |  | 21,9% | 36,5% | 42,0% |  | did not have any impact on the cell cycle | > 10 mM | > 10 mM |  |  |  |  |  |  | 
> 10 mM | > 10 mM |  | C=CCSC[C@H](NC(=O)/C=C/c1ccc(OC(C)=O)c(OC(C)=O)c1)C(=O)OCC [6b, Ethyl N-{(2E)-3-[3,4-bis(acetyloxy)phenyl]prop-2-enoyl}-S-prop-2-en-1-ylcysteinate] |  |  |  |  |  |  |  |  | 3.84 mM | > 10 mM | did not exhibit activity |  |  |  |  |  | 
2.79 mM | > 10 mM |  | C=CCSC[C@H](NC(=O)/C=C/c1ccc(OC(C)=O)c(OC(C)=O)c1)C(=O)OCCCC [6d, Butyl N-{(2E)-3-[3,4-bis(acetyloxy)phenyl]prop-2-enoyl}-S-prop-2-en-1-ylcysteinate] |  |  |  |  |  |  |  |  | 0.21 mM | 9.97 mM |  |  |  |  |  |  | 
0.2 mM | 0.12 mM |  | C=CCSC[C@H](NC(=O)/C=C/c1ccc(O)c(O)c1)C(=O)OCCCCC [9e, Pentyl N-[(2E)-3-(3,4-dihydroxyphenyl)-2-propenoyl]-S-2-propen-1-yl-L-cysteinate] |  |  | 2 days | 8,32% | 59,9% | 32,5% | 22.3% | cell cycle arrest in G2/M phase | 0.21 mM | > 10 mM |  | highest activity |  |  |  |  | 
0.67 mM | > 10 mM |  | C=CCSC[C@H](NC(=O)/C=C/c1ccc(OC(C)=O)c(OC(C)=O)c1)C(=O)OC [6a, Methyl N-{(2E)-3-[3,4-bis(acetyloxy)phenyl]prop-2-enoyl}-S-prop-2-en-1-ylcysteinate] |  |  |  |  |  |  |  |  | 2.77 mM | 7.83 mM |  |  |  |  |  |  | 
0.062 mM | 0.035 mM |  | O=c1[nH]cc(F)c(=O)[nH]1 [5-Fluorouracil, 5-fluorouracil, reference compound] |  | 1.34 |  |  |  |  |  |  | 0.091 mM | 0.048 mM |  |  |  |  |  |  | 
> 10 mM | > 10 mM | 114 to 116 °C | C=CCSC[C@H](N)C(=O)OC [3a, S-Allylcysteine methyl ester] | <0.19 |  |  |  |  |  |  |  | 1.85 mM | > 10 mM |  |  |  |  |  |  | 
0.24 mM | 0.12 mM | 101 to 103 °C | C=CCSC[C@H](NC(=O)/C=C/c1ccc(O)c(O)c1)C(=O)OC [9a, Methyl N-[(2E)-3-(3,4-dihydroxyphenyl)-2-propenoyl]-S-2-propen-1-yl-L-cysteinate] | 2.0 | 1.5 |  | 8,16% | 62,9% | 29,4% | 18.8% | cell cycle arrest in G2/M phase | 0.47 mM | 0.18 mM |  | highest activity |  |  |  |  | 
0.1 mM | 0.11 mM |  | C=CCSC[C@H](NC(=O)/C=C/c1ccc(O)c(O)c1)C(=O)OCCC [9c, Propyl N-[(2E)-3-(3,4-dihydroxyphenyl)-2-propenoyl]-S-2-propen-1-yl-L-cysteinate] |  |  |  | 9,13% | 45,0% | 44,5% |  | S- phase | 0.12 mM | > 10 mM |  |  | 67.3% | 23% |  |  | 
> 10 mM | 0.38 mM |  | C=CCSC[C@H](N)C(=O)O [S-Allylcysteine, reference compound] | >1.0 | >26.32 |  |  |  |  |  |  | > 10 mM | > 10 mM |  |  |  |  |  |  | 
0.11 mM | 0.15 mM | 119 to 121 °C | C=CCSC[C@H](NC(=O)/C=C/c1ccc(O)c(O)c1)C(=O)OCCCC [9d, Butyl N-[(2E)-3-(3,4-dihydroxyphenyl)-2-propenoyl]-S-2-propen-1-yl-L-cysteinate] | >90.91 | >66.67 | 4 days |  |  |  |  |  | > 10 mM | > 10 mM |  |  |  |  |  |  | 
> 10 mM | 1.28 mM | 115 to 117 °C | C=CCSC[C@H](N)C(=O)OCCC [3c, Propyl S-prop-2-en-1-ylcysteinate] | <0.15 | 0.97 |  |  |  |  |  |  | 1.5 mM | 1.24 mM |  |  |  |  |  |  | 
 |  |  | Cc1cccc(NC(=O)/C(C#N)=C/c2cc(O)c(O)c([N+](=O)[O-])c2)c1 [cyanoamide derivative 5] |  |  |  |  |  |  |  |  |  |  |  |  |  |  | 5.6 µg/mL (≈ 16.5 µM) | 12.5 µg/mL (≈ 36.8 µM) | 13.1 µg/mL (≈ 38.6 µM)
1.02 mM | > 10 mM | 80 to 82 °C | C=CCSC[C@H](NC(=O)/C=C/c1ccc(OC(C)=O)c(OC(C)=O)c1)C(=O)OCCC [6c, Propyl N-{(2E)-3-[3,4-bis(acetyloxy)phenyl]prop-2-enoyl}-S-prop-2-en-1-ylcysteinate] | 0.26 | <0.13 |  |  |  |  |  |  | 0.27 mM | 1.25 mM |  |  |  |  |  |  | 
7.06 mM | 3.47 mM |  | O=C(O)/C=C/c1ccc(O)c(O)c1 [Caffeic acid] | >1.42 | >2.88 |  |  |  |  |  |  | > 10 mM | > 10 mM |  |  |  |  |  |  | 
